Test: Abuse resistance through nasal inhalation: aminophylline in blood serum after intranasal administration to mice (HPLC)
Format: in vivo, male mice (CBA C50 Black F1 line)
Details: 10 μL of solution, blood from retro-orbital sinus about 3 to 5 minutes after administration, pool of three mice
Procedure: 10 μL of each experimental solution was administered to a corresponding pool of three mice. About 3 to 5 minutes after administration, blood samples were drawn from the retro-orbital sinuses (sinus retroorbitalis) of the mice, combined and centrifuged for 10 minutes at 3000 rpm. The collected serum was then deproteinized with 0.3 M trichloroacetic acid at a serum to acid ratio of about 0.2 ml to 1.0 ml. To complete the precipitation of proteins, the samples were maintained in a thermostat at 20° C. for about 20 minutes and then filtered through a 0.45 micron acetate cellulose filter. The filtrates were analyzed for aminophylline concentration by injecting 20 μL samples into an HPLC, Schimadzu LC-20AD with photodiode array detector (PDA) and Phenomenex Luna 5μ C18, […] column. Acetonitrile in 0.1M phosphoric acid was used as a Mobile phase with linear gradient of acetonitrile of 1-50% vol., pressure 6.3 Mpa, flow rate 0.5 ml/min, and detector wavelength of about 272 nm.
The chromatograms of serums from Controls 1 and 2 with aminophylline concentration of 4% by weight and 24% by weight are shown in FIGS. 9 and 10, respectively. Similar chromatograms were prepared for all of the samples. The areas of the aminophylline peaks that are proportional to its concentration in the blood taken from the retro-orbital sinus, are presented in Table 6 below: […]

Structure (SMILES) | Aminophylline Concentration in Blood Serum [µg/mL]
Cn1c(=O)c2[nH]cnc2n(C)c1=O [Control-1, aminophylline] | 19.91
Cn1c(=O)c2[nH]cnc2n(C)c1=O [Control-2, aminophylline] | 20.09
